pIC50: −log10 of the molar value. Where two headings read alike, the source gives them in different places. Values belong to the molecule of their own block, whether it stands above or below them.
Columns and labels:
phospho BAD = phospho BAD cell-based data; conditions: Table 4
K-562 = experiment: Alamar Blue cell proliferation assay, K-562; assay type: cell-based; conditions: Homo sapiens, K562, Table 4, read-out: AB: K-562
Protocol: (§1) A representative cell-proliferation assay protocol using Alamar Blue dye (stored at 4° C., use 20 ul per well) is described hereafter.
(§2) 96-Well Plate Setup and Compound Treatment
(§3) a. Split and trypsinize cells.
(§4) b. Count cells using hemocytometer.
(§5) c. Plate 4,000-5,000 cells per well in 100 μl of medium and seed into a 96-well plate according to the following plate layout. Add cell culture medium only to wells B10 to B12. Wells B1 to B9 have cells but no compound added.
(§6) d. Add 100 μl of 2× drug dilution to each well in a concentration shown in the plate layout above. At the same time, add 100 μl of media into the control wells (wells 1310 to B12). Total volume is 200 μl/well.
(§7) e. Incubate four (4) days at 37° C., 5% CO2 in a humidified incubator.
(§8) f. Add 20 μl Alamar Blue reagent to each well.
(§9) g. Incubate for four (4) hours at 37° C., 5% CO2 in a humidified incubator.
(§10) h. Record fluorescence at an excitation wavelength of 544 nm and emission wavelength of 590 nm using a microplate reader.
(§11) In the assays, cells are cultured with a test compound for approximately four days, the dye is then added to the cells and fluorescence of […] dye is detected after approximately four hours. Different types of cells can be utilized in the assays (e.g., HCT-116 human colorectal carcinoma cells, PC-3 human prostatic cancer cells and MiaPaca human pancreatic carcinoma cells).

[1] = tested on: PC-3 human prostatic cancer cells; experiment: Alamar Blue cell proliferation assay, PC3; assay type: cell-based; conditions: Table 4, read-out: AB: PC3
Protocol: as §1, §2, §3, §4, §5, §6, §7, §8, §9, §10, §11

phospho FLT3 = phospho FLT3 cell-based data; conditions: Table 4
THP-1 = experiment: Alamar Blue cell proliferation assay, THP-1; assay type: cell-based; conditions: Homo sapiens, Table 4, read-out: AB: THP-1
Protocol: as §1, §2, §3, §4, §5, §6, §7, §8, §9, §10, §11

recombinant PIM-1 = recombinant PIM-1 (Homo sapiens, UniProt P11309); experiment: PIM-1 kinase assay (radiometric, 15 uM ATP, DMSO 4%); assay type: biochemical; conditions: Table 4; 15 um ATP; read-out: PIM1: IC50 (15 um ATP)
[2] = tested on: MiaPaca human pancreatic carcinoma cells; experiment: Alamar Blue cell proliferation assay, MiaPaCa; assay type: cell-based; conditions: MIA PaCa-2, Table 4, read-out: AB: MiaPaCa
Protocol: as §1, §2, §3, §4, §5, §6, §7, §8, §9, §10, §11

MV-4-11 = experiment: Alamar Blue cell proliferation assay, MV-4-11; assay type: cell-based; conditions: Homo sapiens, MV4-11, Table 4, read-out: AB: MV-4-11
Protocol: as §1, §2, §3, §4, §5, §6, §7, §8, §9, §10, §11

Pim-3 (h) = molecular target: T1, Pim-3 (h) (Homo sapiens, UniProt Q86V86); experiment: PIM-3 assay run at Millipore; assay type: biochemical; conditions: Table 8; read-out: PIM3 IC50
T1 construct: purchased Millipore (printed 'Millopore'; assay run as a service at the vendor)
Protocol: The PIM-3 assay was run at Millopore. The following is the assay as described in the Millopore protocol guide. […] (specific activity approx. 500 cpm/pmol, concentration as required). The reaction is initiated by the addition of the MgATP mix. After incubation for 40 minutes at room temperature, the reaction is stopped by the addition of 5 μL of a 3% phosphoric acid solution. 10 μL of the reaction is then spotted onto a P30 filtermat and washed three times for 5 minutes in 75 mM phosphoric acid and once in methanol prior to drying and scintillation counting.

recombinant human PIM2 = recombinant human PIM2 (Homo sapiens, UniProt Q9P1W9); experiment: PIM-2 assay (radiometric); assay type: biochemical
Protocol: Test compounds dissolved and diluted in DMSO ([…]) were added to a reaction mixture comprising […] of 5× Reaction Buffer (40 mM MOPS pH 7.0, 5 mM EDTA), […] of recombinant human PIM2 solution (4 ng PIM-2 dissolved in dilution buffer (20 mM MOPS pH 7.0; EDTA 1 mM; 5% Glycerol; 0.01% Brij 35; […]; […] 2-mercaptoethanol; 1 mg/ml BSA)) and 8 ul of water. Reactions were initiated by the addition of 10 ul of ATP Solution (49% (15 mM MgCl2; 75 uM ATP) 1% ([γ-33P]ATP: Stock 1 mCi/100 μl; 3000 Ci/mmol (Perkin Elmer)) and 10 ul of substrate peptide solution ([…], dissolved in water at a concentration of 1 mM), Reactions were maintained for 10 min at 30° C. The reactions were quenched with 100 ul of 0.75% Phosphoric acid, then transferred to and filtrered through a Phosphocellulose filter plate (Millipore, MSPH-N6B-50). After washing each well 4 times with 0.75% Phosphoric acid, scintillation fluid (20 uL) was added to each well and the residual radioactivity was measured using a Wallac […] counter.

recombinant human FLT-3 = molecular target: T2, recombinant human FLT-3 (Homo sapiens, UniProt P36888); experiment: FLT-3 kinase activity, cell free in vitro assay; assay type: biochemical; conditions: Table 7; 10 uM ATP; read-out: FLT3_RB: IC50
T2 sequence (P36888 27-993): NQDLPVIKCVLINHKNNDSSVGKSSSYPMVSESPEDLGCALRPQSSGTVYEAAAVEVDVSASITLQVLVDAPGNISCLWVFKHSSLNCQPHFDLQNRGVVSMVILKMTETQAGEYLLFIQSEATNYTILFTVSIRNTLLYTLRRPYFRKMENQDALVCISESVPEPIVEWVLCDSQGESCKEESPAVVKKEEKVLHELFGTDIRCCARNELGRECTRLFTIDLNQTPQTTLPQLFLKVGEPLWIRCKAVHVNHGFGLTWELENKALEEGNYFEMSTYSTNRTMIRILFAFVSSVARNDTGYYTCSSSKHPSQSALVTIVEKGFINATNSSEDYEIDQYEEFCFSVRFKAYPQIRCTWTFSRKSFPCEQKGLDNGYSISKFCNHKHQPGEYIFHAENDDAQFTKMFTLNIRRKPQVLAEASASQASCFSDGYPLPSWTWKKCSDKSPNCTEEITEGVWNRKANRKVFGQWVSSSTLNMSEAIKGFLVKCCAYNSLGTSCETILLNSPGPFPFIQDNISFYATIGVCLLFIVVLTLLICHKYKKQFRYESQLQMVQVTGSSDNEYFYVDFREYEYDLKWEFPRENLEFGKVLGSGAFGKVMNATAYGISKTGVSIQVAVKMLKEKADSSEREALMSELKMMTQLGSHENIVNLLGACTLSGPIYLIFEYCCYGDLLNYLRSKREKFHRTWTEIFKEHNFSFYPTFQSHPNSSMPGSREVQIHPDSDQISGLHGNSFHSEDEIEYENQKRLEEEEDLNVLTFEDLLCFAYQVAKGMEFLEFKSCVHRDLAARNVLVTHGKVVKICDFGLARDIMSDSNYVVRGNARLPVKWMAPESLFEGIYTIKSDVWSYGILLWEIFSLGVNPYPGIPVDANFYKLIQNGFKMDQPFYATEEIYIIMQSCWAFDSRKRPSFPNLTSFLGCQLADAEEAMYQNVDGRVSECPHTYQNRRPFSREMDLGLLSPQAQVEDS

MDAMB-231 = experiment: Alamar Blue cell proliferation assay, MDAMB-231; assay type: cell-based; conditions: Homo sapiens, MDA-MB-231, Table 4, read-out: AB: MDAMB231
Protocol: as §1, §2, §3, §4, §5, §6, §7, §8, §9, §10, §11

BxPC3 = experiment: Alamar Blue cell proliferation assay, BxPC3; assay type: cell-based; conditions: Homo sapiens, BXPC-3, Table 4, read-out: AB: BxPC3
Protocol: as §1, §2, §3, §4, §5, §6, §7, §8, §9, §10, §11

MV-4-11 (AML) xenograft = conditions: 2008 AACR Annual Meeting, Abstract No. 4974; cited from earlier work
MOLM-13 (AML) xenograft = conditions: 2008 AACR Annual Meeting, Abstract No. 4974; cited from earlier work
[3] = tested on: leukemic cells from AML patients; conditions: Fedorov et al., PNAS 104(51); cited from earlier work
[4] = Table 6, 15 μm ATP, read-out: PIM2: IC50 (15 μm ATP)

Sequence of recombinant PIM-1 (P11309 whole entry): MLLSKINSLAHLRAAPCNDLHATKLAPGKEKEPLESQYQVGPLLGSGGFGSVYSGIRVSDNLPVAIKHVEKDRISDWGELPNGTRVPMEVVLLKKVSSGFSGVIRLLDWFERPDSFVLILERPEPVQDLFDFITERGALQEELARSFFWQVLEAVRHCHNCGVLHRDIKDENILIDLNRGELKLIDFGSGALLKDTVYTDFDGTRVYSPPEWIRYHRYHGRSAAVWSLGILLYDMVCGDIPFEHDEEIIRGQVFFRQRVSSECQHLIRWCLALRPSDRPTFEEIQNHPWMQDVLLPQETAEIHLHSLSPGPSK
Sequence of recombinant human PIM2 (Q9P1W9 whole entry): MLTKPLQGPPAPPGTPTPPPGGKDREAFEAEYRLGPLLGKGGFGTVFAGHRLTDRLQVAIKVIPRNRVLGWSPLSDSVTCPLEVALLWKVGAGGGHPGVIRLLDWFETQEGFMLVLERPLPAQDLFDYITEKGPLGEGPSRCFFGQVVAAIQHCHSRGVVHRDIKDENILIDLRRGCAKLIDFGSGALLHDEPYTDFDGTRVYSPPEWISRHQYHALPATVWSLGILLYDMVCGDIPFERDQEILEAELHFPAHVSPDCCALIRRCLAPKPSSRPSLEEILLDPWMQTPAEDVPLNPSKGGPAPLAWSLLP

Compound: C/C(=C1\C(=O)Nc2ccc(Cl)cc21)c1ccc(-c2ccc(C(=O)N3CCCN(C)CC3)cc2)o1 [drawing 336]
pIC50 (Pim-3 (h)): > 6.00
pIC50 (recombinant human PIM2; Table 8, read-out: PIM2 IC50): > 6.30

Compound: Cn1cncc1CNC(=O)c1cccc(-c2ccc(/C=C3/C(=O)Nc4ccc(F)cc43)o2)c1 [drawing 265]
pIC50 (recombinant human FLT-3): 7.00

Compound: O=C1Nc2ccc(F)cc2/C1=C\c1ccc(-c2cccc(C(=O)NCc3ccncc3)c2)o1 [drawing 264]
pIC50 (recombinant human FLT-3): 6.83

Compound: O=C1Nc2ccc(Cl)cc2/C1=C\c1ccc(-c2cccc(C(=O)NCCN(CCO)CCO)c2)o1 [drawing 238]
pIC50 (phospho BAD): 6.22
pIC50 (K-562): 5.79
pIC50 [1]: < 4.52
pIC50 (phospho FLT3): < 5.00
pIC50 (THP-1): 5.54
pIC50 (recombinant PIM-1): 7.09
pIC50 [2]: < 4.52
pIC50 (MV-4-11): 6.54

Compound: C/C(=C1\C(=O)Nc2ccc(Cl)cc21)c1ccc(-c2cccc(C(=O)N3CCCN(C)CC3)c2)o1
pIC50 (phospho BAD): 5.75
pIC50 (MDAMB-231): 6.09
pIC50 (K-562): 6.11
pIC50 (BxPC3): 6.11
pIC50 (phospho FLT3): 5.04
pIC50 (MV-4-11): 6.75

Compound: CN1CCC(CNc2ccc3ncc(-c4cccc(OC(F)(F)F)c4)n3n2)CC1 [SGI-1776]
tumor regression in MV-4-11 (AML) xenograft model (MV-4-11 (AML) xenograft): significant tumor regression
tumor regression in MOLM-13 (AML) xenograft model (MOLM-13 (AML) xenograft): significant tumor regression

Compound: C/C(=C1\C(=O)Nc2ccc(Cl)cc21)c1ccc(-c2ccc(C(=O)N3CCCN(C)CC3)cc2)o1 [drawing 258]
pIC50 (recombinant human PIM2; [4]): > 6.00

Compound: CN(C)C[C@@H]1CCn2cc(c3ccccc32)C2=C(C(=O)NC2=O)c2cn(c3ccccc23)CCO1 [Ly5333′531]
cell growth and cell death in leukemic cells from AML patients [3]: suppressed cell growth and induced cell death

The next lines start with the values.

pIC50 (phospho BAD): 5.85
pIC50 (K-562): 6.33
pIC50 [1]: 5.41
pIC50 (phospho FLT3): < 5.00
pIC50 (THP-1): 5.42
pIC50 (recombinant PIM-1): 6.59
pIC50 [2]: 7.00
pIC50 (MV-4-11): 6.46
Compound: CCN(CC)CCC(=O)Nc1cccc(-c2ccc(/C=C3/C(=O)Nc4ccccc43)o2)c1 [drawing 235]

pIC50 (recombinant human PIM2; [4]): > 6.00
Compound: CCN(CC)CCNC(=O)c1ccc(-c2ccc(/C=C3/C(=O)Nc4ccc(Cl)cc43)o2)cc1 [drawing 260]

pIC50 (recombinant human FLT-3): 6.51
Compound: O=C1Nc2ccc(F)cc2/C1=C\c1ccc(-c2cccc(C(=O)NC3CC3)c2)o1 [drawing 263]

pIC50 (recombinant human FLT-3): 7.00
Compound: O=C1Nc2ccccc2/C1=C\c1ccc(-c2ccc(C(=O)NCCN3CCCC3)cc2)o1

pIC50 (phospho BAD): 5.46
pIC50 (K-562): < 5.00
pIC50 [1]: < 4.52
pIC50 (phospho FLT3): < 5.00
pIC50 (THP-1): < 4.52
pIC50 [2]: < 4.52
pIC50 (MV-4-11): 6.22
Compound: O=C1Nc2ccc(Cl)cc2/C1=C\c1ccc(-c2cccc(C(=O)NCCCO)c2)o1

pIC50 (recombinant human PIM2; [4]): > 6.00
Compound: CN1CCCN(C(=O)c2ccc(-c3ccc(/C=C4/C(=O)Nc5ccc(Cl)cc54)o3)cc2)CC1 [drawing 259]

pIC50 (recombinant human FLT-3): 6.68
Compound: O=C1Nc2ccccc2/C1=C\c1ccc(-c2ccc(Cl)c(C(=O)NCCN3CCCC3)c2)o1 [drawing 261]

pIC50 (Pim-3 (h)): > 6.00
pIC50 (recombinant human PIM2; Table 8, read-out: PIM2 IC50): > 6.30
Compound: CN1CCCN(C(=O)c2ccc(-c3ccc(/C=C4/C(=O)Nc5ccc(Cl)cc54)o3)cc2)CC1 [drawing 337]

pIC50 (phospho BAD): 5.67
pIC50 (K-562): 5.86
pIC50 [1]: 5.87
pIC50 (phospho FLT3): < 5.00
pIC50 (THP-1): 5.41
pIC50 (recombinant PIM-1): 6.26
pIC50 [2]: < 5.00
pIC50 (MV-4-11): 6.46
Compound: O=C(CN1CCCC1)Nc1cccc(-c2ccc(/C=C3/C(=O)Nc4ccccc43)o2)c1 [drawing 236]

Reference: patent US20120190669A1, “OXINDOLE COMPOUNDS” (CYLENE PHARMACEUTICALS, INC., priority 2008, published 2012)
